From patent US6013768A, “Kainate-binding human CNS receptors of the EAA1 family” (priority 1997, dated 2000)

Biological target: T1, human EAA1a receptor (Homo sapiens, UniProt Q16099)
T1 construct: expressed in transfected cells; host or cells: COS-1 (ATCC CRL 1650), transient expression, plasmid pcDNA1/humEAA1a
T1 sequence (Q16099 21-956): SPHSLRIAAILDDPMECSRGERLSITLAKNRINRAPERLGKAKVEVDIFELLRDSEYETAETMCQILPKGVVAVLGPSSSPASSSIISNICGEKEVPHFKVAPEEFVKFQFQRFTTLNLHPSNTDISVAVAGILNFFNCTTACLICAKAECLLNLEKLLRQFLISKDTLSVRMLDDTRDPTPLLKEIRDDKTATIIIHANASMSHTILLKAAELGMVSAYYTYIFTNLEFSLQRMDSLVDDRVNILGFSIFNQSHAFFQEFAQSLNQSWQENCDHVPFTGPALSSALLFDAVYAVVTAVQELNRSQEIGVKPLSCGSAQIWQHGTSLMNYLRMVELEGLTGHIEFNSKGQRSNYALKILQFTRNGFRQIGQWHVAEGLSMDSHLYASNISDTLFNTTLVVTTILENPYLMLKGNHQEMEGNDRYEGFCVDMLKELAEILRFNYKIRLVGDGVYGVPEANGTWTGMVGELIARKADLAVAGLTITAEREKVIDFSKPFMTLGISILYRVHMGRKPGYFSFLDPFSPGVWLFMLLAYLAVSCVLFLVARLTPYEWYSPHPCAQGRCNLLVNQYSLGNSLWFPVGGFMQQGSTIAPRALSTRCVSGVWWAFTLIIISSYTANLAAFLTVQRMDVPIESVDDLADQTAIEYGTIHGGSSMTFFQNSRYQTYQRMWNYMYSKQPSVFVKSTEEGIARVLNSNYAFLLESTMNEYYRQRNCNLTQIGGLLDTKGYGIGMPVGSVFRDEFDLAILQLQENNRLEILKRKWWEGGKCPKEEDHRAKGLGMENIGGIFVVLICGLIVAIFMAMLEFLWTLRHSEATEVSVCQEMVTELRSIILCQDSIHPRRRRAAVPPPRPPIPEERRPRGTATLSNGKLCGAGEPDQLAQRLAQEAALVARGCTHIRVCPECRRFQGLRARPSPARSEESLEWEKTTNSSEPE
Assay: kainate binding assay, membranes of EAA1a-producing COS cells
Method: Transfected cells in the frozen state were resuspended in ice-cold distilled water using a hand homogenizer and centrifuged for 20 minutes at 50,000 g. The supernatant was discarded and the membrane pellet stored frozen at -70° C.
COS cell membrane pellets were suspended in ice cold 50 mM Tris-HCl (pH 7.55, 5° C.) and placed inside Spectrapor 7 (EDTA-treated, sulfur-free) dialysis tubing. The suspension was placed in 4 liters of ice cold 50 mM Tris-HCl (pH 7.55, 5° C.) and dialyzed for 16-24 hours at 5° C. in order to remove endogenous glutamate that would compete for binding. The tissue suspension was recovered from the tubing along with a small volume of buffer used to rinse the tubing. This resultant membrane preparation was used as tissue source for binding experiments described below.
Binding assays were then performed, using an amount of COS-derived membrane equivalent to from 25-100 μg as judged by protein determination and selected radiolabelled ligand.
For kainate binding assays, incubation mixtures consisted of 25-100 μg tissue protein and [vinylidene-^3 H] kainic acid (58 Ci/mmole, 5 nM final) in the cold incubation buffer, 1 ml final volume. Non-specific binding was in the presence of 1 mM L-glutamate. […] Filters were washed twice in 6 ml of the cold incubation buffer, then placed in scintillation vials with 5 ml of Beckman Ready-Safe scintillation cocktail for counting.

Which kainate binding affinity (EAA1a-producing COS cell membranes, high affinity category i.e. nanomolar range) does the source give for `C=C(C)[C@H]1CN[C@H](C(=O)O)[C@H]1CC(=O)O` [kainate] here?
The kainate binding affinity was “high affinity”.

And the “specific binding of labelled kainate” value ([3H]-kainate 5 nM labelled ligand, COS cell membranes, non-specific binding with 1 mM L-glutamate, FIG. 5)?
Its value is “specific [^3 H]-kainate binding”.
